# Test results taken from ChEMBL document CHEMBL5634117 (Eur J Med Chem, 2023).
# Experiments:
# [1] = tested on: HL-60(TB); test: Growth inhibition of human HL-60(TB) cells assessed as reduction in cell viability measured after 48 hrs by SRB assay; type: functional
# [2] = tested on: K562; test: Growth inhibition of human K562 cells assessed as reduction in cell viability measured after 48 hrs by SRB assay; type: functional
# [3] = tested on: SR; test: Growth inhibition of human SR cells assessed as reduction in cell viability measured after 48 hrs by SRB assay; type: functional
# [4] = tested on: A549; test: Growth inhibition of human A549 cells assessed as reduction in cell viability measured after 48 hrs by SRB assay; type: functional
# [5] = tested on: EKVX; test: Growth inhibition of human EKVX cells assessed as reduction in cell viability measured after 48 hrs by SRB assay; type: functional
# [6] = tested on: HOP-92; test: Growth inhibition of human HOP-92 cells assessed as reduction in cell viability measured after 48 hrs by SRB assay; type: functional
# [7] = tested on: NCI-H226; test: Growth inhibition of human NCI-H226 cells assessed as reduction in cell viability measured after 48 hrs by SRB assay; type: functional
# [8] = tested on: NCI-H23; test: Growth inhibition of human NCI-H23 cells assessed as reduction in cell viability measured after 48 hrs by SRB assay; type: functional
# [9] = tested on: COLO 205; test: Growth inhibition of human COLO 205 cells assessed as reduction in cell viability measured after 48 hrs by SRB assay; type: functional
# [10] = tested on: HCC 2998; test: Growth inhibition of human HCC 2998 cells assessed as reduction in cell viability measured after 48 hrs by SRB assay; type: functional
# [11] = tested on: HCT-116; test: Growth inhibition of human HCT-116 cells assessed as reduction in cell viability measured after 48 hrs by SRB assay; type: functional
# [12] = tested on: HCT-15; test: Growth inhibition of human HCT-15 cells assessed as reduction in cell viability measured after 48 hrs by SRB assay; type: functional
# [13] = tested on: HT-29; test: Growth inhibition of human HT-29 cells assessed as reduction in cell viability measured after 48 hrs by SRB assay; type: functional
# [14] = tested on: KM12; test: Growth inhibition of human KM12 cells assessed as reduction in cell viability measured after 48 hrs by SRB assay; type: functional
# [15] = tested on: SF-268; test: Growth inhibition of human SF-268 cells assessed as reduction in cell viability measured after 48 hrs by SRB assay; type: functional
# [16] = tested on: SF-295; test: Growth inhibition of human SF-295 cells assessed as reduction in cell viability measured after 48 hrs by SRB assay; type: functional
# [17] = tested on: SNB-19; test: Growth inhibition of human SNB-19 cells assessed as reduction in cell viability measured after 48 hrs by SRB assay; type: functional
# [18] = tested on: SNB-75; test: Growth inhibition of human SNB-75 cells assessed as reduction in cell viability measured after 48 hrs by SRB assay; type: functional
# [19] = tested on: U-251; test: Growth inhibition of human U-251 cells assessed as reduction in cell viability measured after 48 hrs by SRB assay; type: functional
# [20] = tested on: LOX IMVI; test: Growth inhibition of human LOX IMVI cells assessed as reduction in cell viability measured after 48 hrs by SRB assay; type: functional
# [21] = tested on: M14; test: Growth inhibition of human M14 cells assessed as reduction in cell viability measured after 48 hrs by SRB assay; type: functional
# [22] = tested on: MDA-MB-435; test: Growth inhibition of human MDA-MB-435 cells assessed as reduction in cell viability measured after 48 hrs by SRB assay; type: functional
# [23] = tested on: SK-MEL-2; test: Growth inhibition of human SK-MEL-2 cells assessed as reduction in cell viability measured after 48 hrs by SRB assay; type: functional
# [24] = tested on: SK-MEL-28; test: Growth inhibition of human SK-MEL-28 cells assessed as reduction in cell viability measured after 48 hrs by SRB assay; type: functional
# [25] = tested on: SK-MEL-5; test: Growth inhibition of human SK-MEL-5 cells assessed as reduction in cell viability measured after 48 hrs by SRB assay; type: functional
# [26] = tested on: UACC-257; test: Growth inhibition of human UACC-257 cells assessed as reduction in cell viability measured after 48 hrs by SRB assay; type: functional
# [27] = tested on: IGROV-1; test: Growth inhibition of human IGROV-1 cells assessed as reduction in cell viability measured after 48 hrs by SRB assay; type: functional
# [28] = tested on: OVCAR-3; test: Growth inhibition of human OVCAR-3 cells assessed as reduction in cell viability measured after 48 hrs by SRB assay; type: functional
# [29] = tested on: OVCAR-4; test: Growth inhibition of human OVCAR-4 cells assessed as reduction in cell viability measured after 48 hrs by SRB assay; type: functional
# [30] = tested on: OVCAR-5; test: Growth inhibition of human OVCAR-5 cells assessed as reduction in cell viability measured after 48 hrs by SRB assay; type: functional
# [31] = tested on: OVCAR-8; test: Growth inhibition of human OVCAR-8 cells assessed as reduction in cell viability measured after 48 hrs by SRB assay; type: functional
# [32] = tested on: NCI/ADR-RES; test: Growth inhibition of human NCI/ADR-RES cells assessed as reduction in cell viability measured after 48 hrs by SRB assay; type: functional
# [33] = tested on: SK-OV-3; test: Growth inhibition of human SK-OV-3 cells assessed as reduction in cell viability measured after 48 hrs by SRB assay; type: functional
# [34] = tested on: 786-0; test: Growth inhibition of human 786-0 cells assessed as reduction in cell viability measured after 48 hrs by SRB assay; type: functional
# [35] = tested on: A498; test: Growth inhibition of human A498 cells assessed as reduction in cell viability measured after 48 hrs by SRB assay; type: functional
# [36] = tested on: ACHN; test: Growth inhibition of human ACHN cells assessed as reduction in cell viability measured after 48 hrs by SRB assay; type: functional
# [37] = tested on: CAKI-1; test: Growth inhibition of human CAKI-1 cells assessed as reduction in cell viability measured after 48 hrs by SRB assay; type: functional
# [38] = tested on: RXF 393; test: Growth inhibition of human RXF 393 cells assessed as reduction in cell viability measured after 48 hrs by SRB assay; type: functional
# [39] = tested on: TK-10; test: Growth inhibition of human TK-10 cells assessed as reduction in cell viability measured after 48 hrs by SRB assay; type: functional
# [40] = tested on: UO-31; test: Growth inhibition of human UO-31 cells assessed as reduction in cell viability measured after 48 hrs by SRB assay; type: functional
# [41] = tested on: PC-3; test: Growth inhibition of human PC-3 cells assessed as reduction in cell viability measured after 48 hrs by SRB assay; type: functional
# [42] = tested on: MCF7; test: Growth inhibition of human MCF7 cells assessed as reduction in cell viability measured after 48 hrs by SRB assay; type: functional
# [43] = tested on: MDA-MB-231; test: Growth inhibition of human MDA-MB-231 cells assessed as reduction in cell viability measured after 48 hrs by SRB assay; type: functional
# [44] = tested on: T47D; test: Growth inhibition of human T47D cells assessed as reduction in cell viability measured after 48 hrs by SRB assay; type: functional
# [45] = target: T1, Mitogen-activated protein kinase 8 (Homo sapiens, UniProt P45983); test: Inhibition of human JNK1 at 10 uM in presence of ATP relative to control
# T1 sequence (P45983 whole entry): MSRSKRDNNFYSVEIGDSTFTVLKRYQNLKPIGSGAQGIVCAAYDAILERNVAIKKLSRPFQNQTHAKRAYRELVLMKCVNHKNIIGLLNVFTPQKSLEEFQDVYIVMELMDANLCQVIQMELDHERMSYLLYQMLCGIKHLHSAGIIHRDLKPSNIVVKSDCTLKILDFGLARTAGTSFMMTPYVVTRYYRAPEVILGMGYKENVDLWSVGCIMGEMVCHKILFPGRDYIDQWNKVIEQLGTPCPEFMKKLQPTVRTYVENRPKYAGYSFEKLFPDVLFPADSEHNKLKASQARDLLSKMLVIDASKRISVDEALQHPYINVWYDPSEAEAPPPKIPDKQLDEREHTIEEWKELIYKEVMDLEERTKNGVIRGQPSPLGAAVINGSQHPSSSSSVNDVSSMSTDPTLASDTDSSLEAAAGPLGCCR
# [46] = target: Mitogen-activated protein kinase 9 (Homo sapiens, UniProt P45984); test: Inhibition of human JNK2 at 10 uM in presence of ATP relative to control
# Mitogen-activated protein kinase 9, sequence (P45984 whole entry, looked up): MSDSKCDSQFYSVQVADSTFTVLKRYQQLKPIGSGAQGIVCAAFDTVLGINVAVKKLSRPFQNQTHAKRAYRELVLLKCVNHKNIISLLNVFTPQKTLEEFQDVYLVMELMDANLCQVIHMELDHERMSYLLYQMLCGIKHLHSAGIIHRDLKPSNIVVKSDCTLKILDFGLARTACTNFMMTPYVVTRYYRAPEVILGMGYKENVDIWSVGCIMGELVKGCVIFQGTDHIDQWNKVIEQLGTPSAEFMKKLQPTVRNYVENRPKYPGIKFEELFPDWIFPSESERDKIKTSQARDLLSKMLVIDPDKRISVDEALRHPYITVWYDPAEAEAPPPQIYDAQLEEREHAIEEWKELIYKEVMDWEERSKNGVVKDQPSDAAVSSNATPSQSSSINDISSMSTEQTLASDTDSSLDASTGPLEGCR
# [47] = target: T1, Mitogen-activated protein kinase 8; test: Inhibition of human JNK1 in presence of ATP
structure (smiles),measurement,setting,value
CC(C)(C)n1cc(-c2ccnc(NCCCNS(=O)(=O)c3cccc4ccccc34)c2)c(-c2cccc(O)c2)n1,GI50,[1],2680 nM
same,GI50,[2],1480 nM
same,GI50,[3],1400 nM
same,GI50,[4],2290 nM
same,GI50,[5],2130 nM
same,GI50,[6],1710 nM
same,GI50,[7],1970 nM
same,GI50,[8],1780 nM
same,GI50,[9],1890 nM
same,GI50,[10],1870 nM
same,GI50,[11],1400 nM
same,GI50,[12],1530 nM
same,GI50,[13],1270 nM
same,GI50,[14],2340 nM
same,GI50,[15],2770 nM
same,GI50,[16],1800 nM
same,GI50,[17],2630 nM
same,GI50,[18],1880 nM
same,GI50,[19],1730 nM
same,GI50,[20],1730 nM
same,GI50,[21],1680 nM
same,GI50,[22],1760 nM
same,GI50,[23],1880 nM
same,GI50,[24],1670 nM
same,GI50,[25],1520 nM
same,GI50,[26],2070 nM
same,GI50,[27],2140 nM
same,GI50,[28],2060 nM
same,GI50,[29],1920 nM
same,GI50,[30],1980 nM
same,GI50,[31],2380 nM
same,GI50,[32],1850 nM
same,GI50,[33],2630 nM
same,GI50,[34],2090 nM
same,GI50,[35],1370 nM
same,GI50,[36],2700 nM
same,GI50,[37],2490 nM
same,GI50,[38],1520 nM
same,GI50,[39],2850 nM
same,GI50,[40],2260 nM
same,GI50,[41],1850 nM
same,GI50,[42],1910 nM
same,GI50,[43],2320 nM
same,GI50,[44],2220 nM
same,inhibition,[45],100%
same,inhibition,[46],99.1%
same,IC50,[47],80.3 nM
